In data set [1] the test system is L. (L.) infantum promastigotes. The format is cell-based, Leishmania (L.) infantum. As to the method:
Promastigotes (2 × 10^6 parasites/well) were incubated in 96-well black polystyrene microplates with 1 µM of Sytox Green (Molecular Probes) in HANKS’ balanced salt solution (Sigma-Aldrich) supplemented with 10 mM D-Glucose (Sigma-Aldrich, HBSS + Glu) at 24 °C for 15 min in the dark[45]. Compound 2 (190 µM) was added and the fluorescence was measured every 20 min for up to 2 h, using a fluorimetric microplate reader (FilterMax F5 Multi-Mode, Molecular Devices) with excitation and emission wavelengths of 485 and 520 nm, respectively. Maximum permeabilization was obtained using 0.5% Triton X-100 and untreated parasites were used as negative control.

Data set [2] concerns L. (L.) infantum promastigotes. Nature of the data set: Intracellular calcium levels, Fura-2 AM. The settings on record: 190 µM, 5, 20, 60 and 120 min. The format is cell-based, Leishmania (L.) infantum. As to the method:
Promastigotes (2 × 10^6 parasites/well) were pretreated with 5 µM of Fura-2 AM (Molecular Probes) in PBS 1x, for 40 min at 24 °C in the dark. The parasites were washed and treated with compound 2 (190 µM). The fluorescence was measured at 5, 20, 60 and 120 min, using a fluorimetric microplate reader (FilterMax F5 Multi-Mode, Molecular Devices) with excitation and emission wavelengths of 360 and 500 nm, respectively. Maximum levels of calcium were obtained using 0.5% Triton X-100 and untreated parasites were used as negative control.

Data set [3] relates to Fibroblast NCTC cells clone 929. The data set can be described thus: Mammalian cytotoxicity, MTT colorimetric method. The format is cell-based, murine. The settings on record: up to 200 μM, read-out: CC50 (µM) ± SD NCTC. The procedure:
(§1) Fibroblast NCTC cells clone 929 (6 × 10^4 cells/well) in 96-well plates were incubated with the compounds up to 200 μM in a 5% CO2 humidified incubator at 37 °C. CC50 was determined by the MTT colorimetric method. The selectivity index was determined using the following equation: CC50 against NCTC cells/IC50 against amastigotes
For orientation: Tetrazolium dyes change colour on reduction, which living cells bring about.

In data set [4] the test system is L. (L.) infantum promastigotes. Nature of the data set: Cell cycle analysis, propidium iodide, flow cytometry. The settings on record: 24 h; compound 2 190 µM, miltefosine 25 μM. The format is cell-based, Leishmania (L.) infantum. The procedure:
Promastigotes (2 × 10^6 parasites/well) in mid-log phase were incubated with compound 2 (190 µM) in M-199 medium for 24 h at 24 °C. Parasites were washed and fixed in 70% ice-cold ethanol overnight at −20 °C. After a further wash with PBS 1x, the promastigotes were ressuspended in propidium iodide (10 µg/mL, Molecular Probes) and RNase A (20 µg/mL, Molecular Probes) for 30 min in the dark at room temperature. The fluorescence intensity was analyses using Attune NxT flow cytometer (Thermo Fisher Scientific) with excitation filter wavelengths of 488 nm and emission of 574 nm (BL-2)[47]. Maximum change in the cell cycle was obtained in the presence of miltefosine (25 μM) and untreated parasites were used as negative control. Unstained parasites were used to set background fluorescence.
On the technique in general: A flow cytometer gives signals particle by particle.

Data set [5] concerns L. (L.) infantum promastigotes. Nature of the data set: Mitochondrial membrane electric potential, JC-1, flow cytometry. The format is cell-based, Leishmania (L.) infantum. The note with it: 190 µM, 1 and 2 h, compared to untreated parasites. The procedure: Promastigotes (2 × 10^6 parasites/well) were treated for 1 and 2 h with compound 2 (190 µM) in HBSS + Glu at 24 °C. JC-1 dye (Molecular Probes) was added at a final concentration of 10 μM. The parasites were incubated in the dark for 20 min and washed to eliminate the non-internalized dye. The fluorescence was measure using Attune NxT flow cytometer (Thermo Fisher Scientific) with excitation filter wavelengths of 488 nm and emission of 530 (BL-1) and 574 nm (BL-2). The mitochondrial membrane potential was determined using BL-2/BL-1 ratio[49]. Maximum depolarization was obtained in the presence of CCCP (100 μM) and untreated parasites were used as negative control. Unstained parasites were used to set background fluorescence.

Data set [6] concerns L. (L.) infantum promastigotes. Nature of the data set: Ultrastructural analysis by transmission electron microscopy. The settings on record: (figure legend), 4 and 6 h. Format: cell-based, Leishmania (L.) infantum. Also noted: dose or concentration left out as unconfirmed. The procedure: […] Then, the parasites were washed, fixed in 2.5% glutaraldehyde in 0.1 M sodium cacodylate buffer (pH 7.3), postfixed in 1% osmium tetroxide. The parasites were dehydrated with acetone series and embedded in Epon resin. Ultrathin sections were stained with uranyl acetate and lead citrate. The material was analyzed under transmission electron microscopy (JEOL JEM-1011). Untreated parasites were used as negative control.

Data set [7] relates to intracellular amastigotes of L. (L.) infantum. Nature of the data set: Intracellular amastigotes in peritoneal macrophages, light microscopy counting (infection index). The settings on record: for IC50: intracellular amastigotes in peritoneal macrophages, 96 h, read-out: IC50 (µM) ± SD Amastigote. Format: cell-based, Leishmania (L.) infantum. The procedure: Peritoneal macrophages (1 × 10^5 cell/well) in 16-well slide chambers (NUNC) were infected with amastigotes at a ratio of 10:1 (amastigotes/macrophage) and treated with compounds (60 to 10 µM) for 96 h. Stained slides (Giemsa) were counted using light microscopy and IC50 determined by the infection index. Miltefosine was used as standard and untreated cells as a negative control.

In data set [8] the test system is bone marrow-derived macrophages, uninfected and infected with L. (L.) infantum. The data set can be described thus: Cytokine level quantification, CBA Mouse Inflammation Kit, flow cytometry. Format: cell-based, BALB/c mice. The note with it: 48 h. The procedure: Bone marrow-derived macrophages (5 × 10^5 cells/well) in 24-well plates were infected with amastigotes at a ratio of 10:1 (amastigotes/macrophage) and kept at 37 °C in a 5% CO2 humidified incubator. Cell were treated with compound 2 (60 to 7.5 µM) for 48 h and the supernatant was collected and cytokine quantification was achieved using the CBA Mouse Inflammation Kit (BD Biosciences) according to the manufacturer’s instructions. The fluorescence was measured using BD LSRFortessa flow cytometer (BD Biosciences) and the data analysis was performed using the software FCAP Array (v.3). LPS (50 μg/mL) was used as positive control and untreated parasites were used as negative control.

The subject of data set [9] is L. (L.) infantum promastigotes. Nature of the data set: ATP levels, bioluminescence assay. Format: cell-based, Leishmania (L.) infantum. The settings on record: 190 µM, 1 and 2 h, compared to untreated parasites. As to the method: Promastigotes (2 × 10^6 parasites/well) were treated with compound 2 (190 µM) in HBSS + Glu for 1 and 2 h at 24 °C. Untreated parasites and treated with CCCP (25 µM) were included as negative and positive controls, respectively. The promastigotes were lysed using 0.5% Triton X-100 and mixed with a standard reaction buffer (ATP Determination Kit, Molecular Probes) containing DTT (1 mM), luciferin (0.5 mM) and firefly luciferase (1.25 µg/mL)[50]. Luminescence intensity was measured using a luminometer (FilterMax F5 Multi-Mode, Molecular Devices) and the amount of ATP was calculated from an ATP standard curve.

The test system of data set [10] is L. (L.) infantum promastigotes. The data set can be described thus: Plasma membrane electric potential, DiSBAC2(3), flow cytometry. Format: cell-based, Leishmania (L.) infantum. As to the method: Promastigotes (2 × 10^6 parasites/well) were treated with compound 2 (190 µM) for 1 and 2 h in HBSS + Glu at 24 °C. DiSBAC2(3) (Molecular Probes) were added (0.2 µM) and the parasites were incubated by 5 min[47]. The fluorescence was measure using Attune NxT flow cytometer (Thermo Fisher Scientific) with excitation and emission wavelengths of 488 and 574 nm (BL-2), respectively. Raloxifene (60 μM) was used as positive control and untreated parasites were used as negative control. Unstained parasites were used to set background fluorescence.

The test system of data set [11] is L. (L.) infantum promastigotes. Nature of the data set: Promastigote viability, MTT colorimetric method. Format: cell-based, Leishmania (L.) infantum. The procedure:
Promastigotes (1 × 10^6 parasites/well) in 96-well plates were incubated with the four compounds (150 to 1.2 μM) for 96 h at 24 °C. The parasite viability was determined using the MTT colorimetric method. Miltefosine was used as standard, with untreated cells as a negative control. A parallel promastigote activity assay was performed for 2 h with compound 2 (200 to 1.56 μM) for mechanism of action studies. After this period of incubation with compound 2, the parasites were washed twice with M-199 medium and the parasite viability was determined using the MTT colorimetric method for 4 h incubation at 24 °C.

The subject of the next data set is Leishmania. The settings on record: cited from earlier work.
For data set [12], the system named is Trypanosoma cruzi parasites. The settings on record: cited from earlier work.
Data set [13] deals with Trypanosoma cruzi parasites. Also noted: method as in PMID 28864277. The settings on record: cited from earlier work.
In the next data set the test system is L. (L.) amazonensis. Set-up: method as in PMID 20064628. The settings on record: cited from earlier work.
A short description of data set [14]: Mammalian cytotoxicity, MTT colorimetric method. Format: cell-based, murine. The note with it: mouse, NCTC clone 929 fibroblast cells, up to 200 μM, read-out: CC50 (µM) ± SD NCTC. The procedure:
as §1

Setting [15] is: 96 h at 24 °C, MTT, read-out: IC50 (µM) ± SD Promastigote.

Read-outs that look alike come from different tables or passages of the source. Where only a bound is given, the exact number is not on record here.

Broadly, the CC50 is the concentration that lowers cell viability or growth by half. Broadly, the IC50 is the point on the concentration scale where inhibition reaches its midpoint.

For the molecule “1-Propyl-3-(1′-propyl-3′-methoxyphenoxy)-5-methoxy-4-benzoyloxybenzene [Compound 2]”, the “plasma membrane permeability (Sytox Green fluorescence)” value in [1] is given as “No changes in the fluorescence levels were observed”. In [2], the “cytosolic Ca2+ levels (Fura-2 AM)” value was “induced a fast up-regulation of calcium levels, in a time-dependent manner”. The half-maximal cytotoxic concentration (CC50) in data set [3] is > 200 µM. Further, in data set [4], the “Proportion of promastigotes in different stages of cell cycle (% ± SD) G0/G1” value worked out at 52.3 ± 1.1 %, the “Proportion of promastigotes in different stages of cell cycle (% ± SD) M/G2” value came to 26.4 ± 0.1 %, the “Proportion of promastigotes in different stages of cell cycle (% ± SD) S” value is reported as 13.7 ± 0.7 % and the “Proportion of promastigotes in different stages of cell cycle (% ± SD) Sub G0” value worked out at 3.0 ± 0.2 %. Moreover, the “mitochondrial membrane electric potential (ΔΨm), JC-1 BL-2/BL-1 ratio” value in data set [5] was “induced a significant (p < 0.0001) depolarization of the mitochondrial membrane potential”. Moreover, the “ultrastructural alterations (TEM)” value in data set [6] was “intense swelling of the mitochondria with severe loss of cristae and matrix and concentric membranous structures inside this organelle”. This molecule also came in with an amastigotes eliminated in data set [7] (at the highest tested concentration) of 100%. The IC50 in data set [7] stood at 6.1 ± 1.2 µM. Besides, the MCP-1 levels result in data set [8] (60 μM, both macrophage groups) is “decrease this chemokine in both macrophage groups”. Also, in data set [8] (infected macrophages at 30 and 15 μM, uninfected at 60 and 30 μM), the TNF production entry is “reduced the TNF production”. Also, the ATP concentration entry in data set [9] is recorded as “dose-dependent decrease of ATP concentration”. In addition, the “plasma membrane electric potential (ΔΨp), DiSBAC2(3) fluorescence” value in data set [10] (190 µM, 1 and 2 h, compared with untreated parasites) is “induced a significant (p < 0.0001) depolarization of the potential”. Further, in data set [11] (setting [15]), the IC50 amounted to 105 ± 9.4 µM. In addition, the concentration for half-maximal inhibition (IC50) in [11] (after 2 h of incubation, used for mechanism of action assays, read-out: second IC50 value against promastigotes) is 190 µM.
In the case of `C/C=C/c1cc(OC)c2c(c1)[C@H](C)[C@@H](c1ccc(O)c(OC)c1)O2` [licarin A], in the data set with Leishmania, the “anti-Leishmania effect and NO upregulation” value is given as “anti-Leishmania effect without NO upregulation”.
Take `O=C(c1ccc(OCCN2CCCCC2)cc1)c1c(-c2ccc(O)cc2)sc2cc(O)ccc12` [Raloxifene, reference compound]: the “plasma membrane electric potential (ΔΨp), DiSBAC2(3) fluorescence” value in data set [10] (positive control, 60 μM) was “caused increased levels of fluorescence”.
With “1-Propyl-3-(1′-propyl-3′-methoxyphenoxy)-4,5-dimethoxybenzene [Compound 3]”, the CC50 in data set [3] worked out at 57.7 ± 1.1 µM. In addition, the half-inhibitory concentration (IC50) was found to be 21.7 ± 1.9 µM in [7] and 29.6 ± 2.3 µM in [11] (setting [15]).
For `C=CCc1ccc(Oc2cc([C@@H](O)C=C)cc(OC)c2OC)c(OC)c1` [1-[(7S)-hydroxy-8-propenyl]-3-[3′-methoxy-1′-(8′-propenyl)-phenoxy]-4,5-methoxybenzene], the plasma membrane permeabilization entry in data set [12] is “plasma membrane permeabilization was verified”. Moreover, the “depolarization of the mitochondrial membrane” value in [13] is “induce depolarization of the mitochondrial membrane”.
For the molecule eupomatenoid-5, in the data set with L. (L.) amazonensis, the “depolarization of the mitochondrial membrane” value was “induce depolarization of the mitochondrial membrane”.
In the case of `C=CCc1ccc(Oc2cc(CC=C)cc(OC)c2O)c(OC)c1` [dehydrodieugenol B], in data set [12], the plasma membrane permeabilization result was “plasma membrane permeabilization was verified”.
As to `CCCCCCCCCCCCCCCCOP(=O)([O-])OCC[N+](C)(C)C` [Miltefosine, reference compound], the half-maximal cytotoxic concentration (CC50) in data set [14] was 120 ± 4.2 µM. Also, in [4], the “Proportion of promastigotes in different stages of cell cycle (% ± SD) G0/G1” value is 36.4 ± 1.3 %, the “Proportion of promastigotes in different stages of cell cycle (% ± SD) M/G2” value was determined as 31.4 ± 0.5 %, the “Proportion of promastigotes in different stages of cell cycle (% ± SD) S” value stood at 12.3 ± 0.1 % and the “Proportion of promastigotes in different stages of cell cycle (% ± SD) Sub G0” value was 10.1 ± 0.2 %. Moreover, the IC50 in data set [7] (Leishmania infantum, Peritoneal macrophage) stood at 6.5 ± 3 µM. Moreover, the “SI (Selectivity Index)” value in data set [7] (ratio between CC50 in NCTC cells and IC50 in intracellular amastigotes) was found to be 18.4. Further, in [11] (Leishmania infantum, 96 h at 24 °C, MTT, read-out: IC50 (µM) ± SD Promastigote), the IC50 was 5.1 ± 0.6 µM.
